Consider 27 compounds from PubChem BioAssay AID192 (DTP/NCI, 2004).

This assay has as its system BDF1 mice, B16 melanoma ip, median survival T/C. Kind of assay: NCI In Vivo Anticancer Drug Screen. Data for tumor model B16 Melanoma (intraperitoneal) in B6D2F1 (BDF1) mice. The settings on record: endpoint: median survival time, higher = longer survival. The gist of the method: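 Vehicle-treated animals serve as the reference (C); treated animals (T) are scored for survival or tumor size after tumor transplantation.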

The mark [1] stands for this setting: dose: 12.5 mg/kg/injection, schedule: Q01DX009 (ip), vehicle: saline with Tween-80.
The mark [2] stands for this setting: dose: 25.0 mg/kg/injection, schedule: Q01DX009 (ip), vehicle: saline with Tween-80.
[3] abbreviates: dose: 6.25 mg/kg/injection, schedule: Q01DX009 (ip), vehicle: saline.
[4] abbreviates: dose: 12.5 mg/kg/injection, schedule: Q01DX009 (ip), vehicle: saline.
[5] abbreviates: dose: 25.0 mg/kg/injection, schedule: Q01DX009 (ip), vehicle: saline.
Where [6] appears, read: dose: 50.0 mg/kg/injection, schedule: Q01DX009 (ip), vehicle: saline.
Setting [7] is: dose: 100.0 mg/kg/injection, schedule: Q01DX009 (ip), vehicle: saline.
The mark [8] stands for this setting: dose: 200.0 mg/kg/injection, schedule: Q01DX009 (ip), vehicle: saline.
Where [9] appears, read: dose: 400.0 mg/kg/injection, schedule: Q01DX009 (ip), vehicle: saline.
The mark [10] stands for this setting: dose: 6.25 mg/kg/injection, schedule: Q01DX009 (ip), vehicle: other.
[11] abbreviates: dose: 12.5 mg/kg/injection, schedule: Q01DX009 (ip), vehicle: other.
The mark [12] stands for this setting: dose: 25.0 mg/kg/injection, schedule: Q01DX009 (ip), vehicle: other.
Where [13] appears, read: dose: 50.0 mg/kg/injection, schedule: Q01DX009 (ip), vehicle: other.
Where [14] appears, read: dose: 100.0 mg/kg/injection, schedule: Q01DX009 (ip), vehicle: other.
The mark [15] stands for this setting: dose: 6.25 mg/kg/injection, schedule: Q01DX009 (ip), vehicle: saline with Tween-80.
[16] abbreviates: dose: 25.0 mg/kg/injection, schedule: Q01DX009 (ip), vehicle: Klucel (hydroxypropylcellulose) (HPC).
The mark [17] stands for this setting: dose: 50.0 mg/kg/injection, schedule: Q01DX009 (ip), vehicle: Klucel (hydroxypropylcellulose) (HPC).
The mark [18] stands for this setting: dose: 100.0 mg/kg/injection, schedule: Q01DX009 (ip), vehicle: Klucel (hydroxypropylcellulose) (HPC).
Setting [19] is: dose: 200.0 mg/kg/injection, schedule: Q01DX009 (ip), vehicle: Klucel (hydroxypropylcellulose) (HPC).
[20] abbreviates: dose: 50.0 mg/kg/injection, schedule: Q01DX009 (ip), vehicle: saline with Tween-80.
Where [21] appears, read: dose: 100.0 mg/kg/injection, schedule: Q01DX009 (ip), vehicle: saline with Tween-80.

Where “and” joins values, the source holds several entries; their conditions need not be identical. Equal values may be shown once. Toxic doses and inconclusive results are not listed.

For the compound `COC1C(C)OC(OC2CC(C)(O)Cc3cc4c(c(O)c32)C(=O)c2c(O)cc3c(c2C4=O)OC2OC3(C)C(O)C(N(C)C)C2O)C(OC)C1(C)OC` (stereo unspecified), the T/C was 95 % of control (dose: 0.16 mg/kg/injection, schedule: Q01DX009 (ip), vehicle: other); 159 % of control (dose: 0.63 mg/kg/injection, schedule: Q01DX009 (ip), vehicle: other); 195 % of control (dose: 5.4 mg/kg/injection, schedule: Q04DX003 (ip), vehicle: lactic acid); 171 % of control (dose: 9.0 mg/kg/injection, schedule: Q04DX003 (ip), vehicle: lactic acid).
For `Cc1ccc(C)c(CCN)c1`, the T/C is, setting by setting: under setting [1], 104 % of control; under setting [2], 97 % of control.
With `CCN(CC)CCOC(=O)N(c1ccccc1)c1ccccc1`, the T/C by setting is: under setting [3], 104 % of control; under setting [4], 100 % of control; under setting [5], 104 % of control; under setting [6], 95 % of control; under setting [7], 86 % of control.
For the compound `CCCC(=O)NC1CCc2cc(OC)c(OC)c(OC)c2-c2ccc(OC)c(=O)cc21` (stereo unspecified), the T/C (dose: 0.15 mg/kg/injection, schedule: Q01DX009 (ip), vehicle: Klucel (hydroxypropylcellulose) (HPC)) was 115 % of control; the T/C (dose: 0.31 mg/kg/injection, schedule: Q01DX009 (ip), vehicle: Klucel (hydroxypropylcellulose) (HPC)) is 112 % of control; the T/C (dose: 0.63 mg/kg/injection, schedule: Q01DX009 (ip), vehicle: Klucel (hydroxypropylcellulose) (HPC)) is 119 % of control; the T/C (dose: 2.5 mg/kg/injection, schedule: Q01DX009 (ip), vehicle: Klucel (hydroxypropylcellulose) (HPC)) was 123 % of control.
Turning to `c1ccc(COB(OCc2ccccc2)OCc2ccccc2)cc1`, the T/C by setting is: under setting [7], 108 % of control; under setting [8], 97 % of control; under setting [9], 87 % of control.
For the compound `c1ccc(C2CCCCCC2)cc1`, the T/C runs as follows: under setting [10], 108 % of control; under setting [11], 98 % of control; under setting [12], 111 % of control; under setting [13], 109 % of control; under setting [14], 89 % of control.
As for `CCC(CC)(C[NH-])C[NH-].[Cl][Pt+2][Cl]`, the T/C was 164 % of control (dose: 1.2 mg/kg/injection, schedule: Q01DX009 (ip), vehicle: carboxymethylcellulose (CMC)) and 164 % of control (dose: 2.4 mg/kg/injection, schedule: Q01DX009 (ip), vehicle: carboxymethylcellulose (CMC)).
`CCC(C)C(C)(COC(N)=O)COC(N)=O` (stereo unspecified): the T/C (dose: 100.0 mg/kg/injection, schedule: Q04DX003 (ip), vehicle: Klucel (hydroxypropylcellulose) (HPC)) was 97 % of control; the T/C (dose: 200.0 mg/kg/injection, schedule: Q04DX003 (ip), vehicle: Klucel (hydroxypropylcellulose) (HPC)) is 102 % of control; the T/C (dose: 400.0 mg/kg/injection, schedule: Q04DX003 (ip), vehicle: Klucel (hydroxypropylcellulose) (HPC)) was 105 % of control.
On to `CCn1c(O)c(C=N)c(=O)n(CC)c1=O`, for which the T/C (dose: 150.0 mg/kg/injection, schedule: Q04DX003 (ip), vehicle: Klucel (hydroxypropylcellulose) (HPC)) was 90 % of control.
As for `N#CCc1ccc(Cl)c(Cl)c1`, the T/C under setting [15] is 90 % of control, the T/C under setting [1] was 88 % of control and the T/C under setting [2] is 95 % of control.
Consider `O=C1NC(c2cccc(OCc3ccccc3)c2)Nc2ccccc21` (stereo unspecified), for which the T/C was 92 % of control under setting [16], 100 % of control under setting [17], 103 % of control under setting [18] and 108 % of control under setting [19].
As to `Cc1[nH]c(=O)[nH]c(=O)c1NC(=O)c1ccccc1[N+](=O)[O-]`, the T/C under setting [1] was 100 % of control, the T/C under setting [2] was 102 % of control and the T/C under setting [20] was 102 % of control.
`CC1(C)OC(=O)N(CO)C1=O`: the T/C under setting [3] is 95 % of control; the T/C under setting [4] was 94 % of control and 109 % of control; the T/C under setting [5] is 94 % of control and 115 % of control; the T/C under setting [6] was 108 % of control and 115 % of control; the T/C under setting [7] was 114 % of control and 115 % of control; the T/C under setting [8] is 109 % of control and 117 % of control.
On to `Cc1ccc(S(=O)(=O)N/N=C/c2ccccc2)cc1`, for which the T/C runs as follows: under setting [13], 104 % of control; under setting [14], 110 % of control; (dose: 200.0 mg/kg/injection, schedule: Q01DX009 (ip), vehicle: other) 103 % of control; (dose: 400.0 mg/kg/injection, schedule: Q01DX009 (ip), vehicle: other) 106 % of control.
With `COC1C(OC(=O)c2ccc(C)[nH]2)C(O)C(Oc2ccc3c(O)c(NC(=O)c4ccc(O)c(CC=C(C)C)c4)c(=O)oc3c2Cl)OC1(C)C` (stereo unspecified), the T/C runs as follows: under setting [10], 101 % of control; under setting [11], 97 % of control and 124 % of control; under setting [12], 90 % of control and 91 % of control; under setting [13], 94 % of control.
Turning to `O=S(=O)(Nc1cccc(C(F)(F)F)c1)c1ccccc1`, the T/C is 108 % of control under setting [2], 101 % of control under setting [20] and 97 % of control under setting [21].
Take `O=C(O)c1cccnc1`: the T/C runs as follows: (dose: 12.5 mg/kg/injection, schedule: Q01DX009 (ip), vehicle: Klucel (hydroxypropylcellulose) (HPC)) 112 % of control; under setting [16], 105 % of control; under setting [17], 97 % of control; under setting [18], 100 % of control.
Turning to `CCOC(=O)C(C(=O)OCC)N(CC)CC`, the T/C reads like this: under setting [18], 93 % of control; under setting [19], 90 % of control; (dose: 400.0 mg/kg/injection, schedule: Q01DX009 (ip), vehicle: Klucel (hydroxypropylcellulose) (HPC)) 100 % of control.
With `CC(=N\[O-])/C(C)=N/O.CC(=N\[O-])/C(C)=N/O.CC(=O)[O-].CC(=O)[O-].O.[Rh+2].[Rh+2]`, the T/C runs as follows: (dose: 1.56 mg/kg/injection, schedule: Q01DX009 (ip), vehicle: saline) 115 % of control; under setting [5], 115 % of control.
For `O=S(=O)(O)C1CCC[N-]C1.O=S(=O)(O)C1CCC[N-]C1.[Cl][Pt+2]([Cl])([Cl])[Cl]` (stereo unspecified), the T/C was 110 % of control under setting [15]; 95 % of control under setting [1]; 103 % of control under setting [2]; 106 % of control under setting [20]; 105 % of control under setting [21].
As to `N#Cc1c(F)c(F)c(C#N)c(F)c1F`, the T/C by setting is: (dose: 1.25 mg/kg/injection, schedule: Q01DX009 (ip), vehicle: saline with Tween-80) 90 % of control; (dose: 2.5 mg/kg/injection, schedule: Q01DX009 (ip), vehicle: saline with Tween-80) 90 % of control.
Take `O=S(=O)(CCBr)CCBr`: the T/C is, setting by setting: under setting [2], 93 % of control; under setting [20], 93 % of control; under setting [21], 98 % of control.
In the case of `O=S(=O)(O)CNc1ccccc1`, the T/C runs as follows: (dose: 100.0 mg/kg/injection, schedule: Q04DX003 (ip), vehicle: saline) 104 % of control; (dose: 200.0 mg/kg/injection, schedule: Q04DX003 (ip), vehicle: saline) 97 % of control; (dose: 400.0 mg/kg/injection, schedule: Q04DX003 (ip), vehicle: saline) 106 % of control.
For the compound `OCCN1CCC2(CC1)SSC1(CCN(CCO)CC1)S2`, the T/C was 117 % of control under setting [7] and 112 % of control under setting [8].
Consider `CC(C)N(C(=O)COc1ccc(Cl)cc1)c1ccccc1`, for which the T/C is 86 % of control under setting [17], 106 % of control under setting [18] and 86 % of control under setting [19].
As for `COc1ccc2c(c1)C(=O)CC=C(C(=O)O)N2`, the T/C is 100 % of control under setting [7]; 88 % of control (dose: 100.0 mg/kg/injection, schedule: Q04DX003 (ip), vehicle: saline with Tween-80); 96 % of control under setting [8]; 93 % of control (dose: 200.0 mg/kg/injection, schedule: Q04DX003 (ip), vehicle: saline with Tween-80); 98 % of control under setting [9]; 95 % of control (dose: 400.0 mg/kg/injection, schedule: Q04DX003 (ip), vehicle: saline with Tween-80).
With `Cc1cccc2nc(-c3ccccc3)ccc12`, the T/C (dose: 12.5 mg/kg/injection, schedule: Q04DX003 (ip), vehicle: saline) is 107 % of control and the T/C (dose: 25.0 mg/kg/injection, schedule: Q04DX003 (ip), vehicle: saline) is 105 % of control.
